Test results taken from the NIST ThermoML archive (doi:10.1021/je049595u).

Test: molar heat capacity at saturation pressure
Conditions: Vacuum adiabatic calorimetry

Cc1ccc2ccccc2n1 [2-methylquinoline]
molar heat capacity [J/K/mol]
Conditions | Crystal | Liquid
5 K | 0.46 | –
5.565 K | 0.62 | –
6.404 K | 0.956 | –
7.354 K | 1.4 | –
8.354 K | 1.96 | –
9.372 K | 2.64 | –
10 K | 3.14 | –
10.39 K | 3.48 | –
11.53 K | 4.41 | –
12.8 K | 5.65 | –
14.21 K | 7.09 | –
15.75 K | 8.78 | –
17.46 K | 10.78 | –
19.36 K | 13.04 | –
20 K | 13.79 | –
21.49 K | 15.56 | –
23.83 K | 18.39 | –
26.43 K | 21.5 | –
29.31 K | 24.82 | –
30 K | 25.6 | –
32.52 K | 28.38 | –
36.12 K | 32.14 | –
39.68 K | 35.64 | –
40 K | 35.96 | –
43.66 K | 39.34 | –
48.56 K | 43.53 | –
50 K | 44.72 | –
52.54 K | 46.74 | –
53.49 K | 47.45 | –
53.98 K | 47.92 | –
57.46 K | 50.56 | –
58.64 K | 51.46 | –
60 K | 52.34 | –
60.03 K | 52.29 | –
63.2 K | 54.47 | –
64.47 K | 55.29 | –
69.56 K | 58.68 | –
70 K | 58.93 | –
76.52 K | 62.82 | –
80 K | 64.8 | –
84.08 K | 67.08 | –
89.02 K | 69.74 | –
90 K | 70.27 | –
92.31 K | 71.48 | –
97.21 K | 73.97 | –
100 K | 75.42 | –
101.28 K | 76.06 | –
106.32 K | 78.59 | –
110.83 K | 80.82 | –
116.09 K | 83.37 | –
120 K | 85.27 | –
125.97 K | 88.15 | –
135.92 K | 92.98 | –
140 K | 94.96 | –
145.89 K | 97.82 | –
155.92 K | 102.78 | –
160 K | 104.8 | –
166.03 K | 107.81 | –
176.22 K | 112.93 | –
180 K | 114.86 | –
187.41 K | 118.71 | –
190.57 K | 120.24 | –
199.53 K | 125.07 | –
200 K | 125.32 | –
205.56 K | 128.27 | –
211.51 K | 131.45 | –
220 K | 135.9 | –
222.27 K | 136.99 | –
223.47 K | 137.78 | –
223.49 K | 138.03 | –
235.04 K | 144.29 | –
235.46 K | 144.65 | –
239.04 K | 146.8 | –
240 K | 147.3 | –
241.52 K | 148.31 | –
247.49 K | 151.95 | –
250 K | – | 205.2
250.7 K | 154.08 | –
251.78 K | – | 205.82
256.02 K | – | 207.51
257.75 K | 159.11 | –
259.67 K | 160.66 | –
260 K | 160.12 | 209.03
261.22 K | 161.55 | –
263.55 K | – | 210.39
270.48 K | 167.45 | –
